Data taken from patent US7858635B2 (priority 2005, dated 2010).
Read-outs that look alike come from different tables or passages of the source.

Experiments:
M1 muscarinic receptor = target: T1, M1 muscarinic receptor (Homo sapiens, UniProt P11229); experiment: Functional mobilization of intracellular calcium (FLIPR, Fluo-3), M1-CHO cells; assay type: cell-based; details: for Emax: 100% efficacy is the maximum response obtained with the Carbachol control, read-out: M1 Efficacy
T1 construct: expressed in transfected cells; host or cells: CHO cells (M1-CHO, under zeocin and G418 selection)
T1 sequence (P11229 1-460): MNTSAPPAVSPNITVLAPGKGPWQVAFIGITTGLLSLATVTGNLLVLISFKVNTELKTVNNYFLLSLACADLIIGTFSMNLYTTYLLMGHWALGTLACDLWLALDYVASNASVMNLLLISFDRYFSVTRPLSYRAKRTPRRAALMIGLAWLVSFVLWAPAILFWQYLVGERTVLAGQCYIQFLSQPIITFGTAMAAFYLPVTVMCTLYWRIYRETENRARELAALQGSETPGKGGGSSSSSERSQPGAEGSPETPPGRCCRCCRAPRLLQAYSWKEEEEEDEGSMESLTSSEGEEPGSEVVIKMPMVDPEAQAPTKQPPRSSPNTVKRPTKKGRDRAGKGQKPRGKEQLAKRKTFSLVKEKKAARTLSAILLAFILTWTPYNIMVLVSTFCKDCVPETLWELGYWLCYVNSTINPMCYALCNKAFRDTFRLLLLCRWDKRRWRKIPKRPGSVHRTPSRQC
Procedure, shortened: (§1)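 Intracellular calcium was tracked by fluorescence (488/540 nm) over 60 sec after compound addition to dye-loaded CHO cells expressing the receptor. Inhibitory activity used a 15 min pre-incubation before carbachol at the subtype EC80.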

M4 muscarinic receptor = target: T2, M4 muscarinic receptor (Homo sapiens, UniProt P08173); experiment: Functional mobilization of intracellular calcium (FLIPR, Fluo-3), M4-CHO cells; assay type: cell-based; details: for Emax: 100% efficacy is the maximum response obtained with the Carbachol control, read-out: M4 Efficacy
T2 construct: expressed in transfected cells; host or cells: CHO cells (M4-CHO, under puromycin, zeocin and blasticidin selection)
T2 sequence (P08173 1-479): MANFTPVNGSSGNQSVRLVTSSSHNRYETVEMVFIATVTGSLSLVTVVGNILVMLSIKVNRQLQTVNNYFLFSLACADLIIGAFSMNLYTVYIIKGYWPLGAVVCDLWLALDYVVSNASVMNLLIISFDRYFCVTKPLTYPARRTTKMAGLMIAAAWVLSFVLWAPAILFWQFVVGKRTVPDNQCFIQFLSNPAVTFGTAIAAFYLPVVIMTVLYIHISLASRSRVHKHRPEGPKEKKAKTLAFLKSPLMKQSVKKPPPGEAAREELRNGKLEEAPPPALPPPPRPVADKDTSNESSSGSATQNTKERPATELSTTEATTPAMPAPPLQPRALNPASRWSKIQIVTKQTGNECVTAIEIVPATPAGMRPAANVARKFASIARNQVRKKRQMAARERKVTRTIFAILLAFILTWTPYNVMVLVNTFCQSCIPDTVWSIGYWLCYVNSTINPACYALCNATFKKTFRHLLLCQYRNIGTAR
Procedure, shortened: as §1

[1] = compound nos. 1-454, M1-CHO cells, calcium mobilization
[2] = compound nos. 1-454, M4-CHO cells, calcium mobilization

SMILES	M1 Activity (M1 muscarinic receptor; compound nos. 1-454)	Emax (M1 muscarinic receptor; compound nos. 1-454)	M4 Activity (M4 muscarinic receptor; compound nos. 1-454)	Emax (M4 muscarinic receptor; compound nos. 1-454)	M1 Activity (M1 muscarinic receptor; [1])	M4 Activity (M4 muscarinic receptor; [2])	Emax (M1 muscarinic receptor; compound nos. 455-509)	M1 Activity (M1 muscarinic receptor; compounds 455-509)	Emax (M4 muscarinic receptor; compound nos. 455-509)	M4 Activity (M4 muscarinic receptor; compounds 455-509)
CC(=O)NC1CC2(CCN(C[C@@H]3C[C@H]4C=C[C@H]3C4)CC2)c2ccccc21 (stereo partly shown) [compound 408]	+++ (activity was measured to be less than or equal to 0.7 μM)	65 to 85%	+++ (activity was measured to be less than or equal to 0.1 μM)	55 to 70%						
COCCOC(=O)N1CCC(CN2CCC3(CC2)CN(C(C)=O)c2ccc(C)cc23)CC1 [compound 419]	+ (activity was measured to be greater than or equal to 3.0 μM)	< 65%	+ (activity was measured to be greater than or equal to 4.0 μM)	< 55%						
COCCOC(=O)N1CCCC(N2CCC3(CC2)CN(C(C)=O)c2ccc(F)cc23)CC1 (stereo not shown) [compound 65]		65 to 85%		< 55%	++ (activity was measured to be between 0.7 μM and 3.0 μM)	+ (activity was measured to be greater than or equal to 4.0 μM)				
CCOC(=O)N1CCC(N2CCC3(CC2)CN(C(C)=O)c2ccc(F)cc23)C1 (stereo not shown) [compound 113]		65 to 85%		< 55%	+++ (activity was measured to be less than or equal to 0.7 μM)	+ (activity was measured to be greater than or equal to 4.0 μM)				
CCOC(=O)N1CCC(N2CCC3(CC2)CN(C(C)=O)c2ccc(C)cc23)CC1 [compound 92]		65 to 85%		< 55%	+++ (activity was measured to be less than or equal to 0.7 μM)	++ (activity was measured to be between 0.1 μM and 4.0 μM)				
Fc1ccc2c(c1)C1(CCN([C@H]3C[C@@H]4CC[C@@H]3C4)CC1)CO2 [compound 204]		65 to 85%		< 55%	+++ (activity was measured to be less than or equal to 0.7 μM)	+ (activity was measured to be greater than or equal to 4.0 μM)				
CCNC(=O)N1CC2(CCN(C3CC4CCC(C3)N4C(=O)OCC)CC2)c2cc(F)ccc21 (stereo not shown) [compound 255]		< 65%		< 55%	+ (activity was measured to be greater than or equal to 3.0 μM)	+ (activity was measured to be greater than or equal to 4.0 μM)				
CCOC(=O)N1C2CCC1CC(N1CCC3(CC1)CC(=O)Nc1ccccc13)C2 (stereo not shown) [compound 56]		65 to 85%		55 to 70%	+++ (activity was measured to be less than or equal to 0.7 μM)	+++ (activity was measured to be less than or equal to 0.1 μM)				
CC(=O)N[C@H]1CC2(CCN(C3CC4CCC(C4)C3)CC2)c2ccccc21 (stereo partly shown) [compound 337]		< 65%		< 55%	+ (activity was measured to be greater than or equal to 3.0 μM)	+ (activity was measured to be greater than or equal to 4.0 μM)				
CCCOC(=O)N1C2CCC1CC(N1CCC3(CC1)CN(C(=O)C1CCC1)c1ccc(F)cc13)C2 (stereo not shown) [compound 302]		< 65%		< 55%	+ (activity was measured to be greater than or equal to 3.0 μM)	+ (activity was measured to be greater than or equal to 4.0 μM)				
Fc1ccc2c(c1)C1(CCN(C3CCC4CCC3C4)CC1)CN2 (stereo not shown) [compound 111]		65 to 85%		< 55%	+++ (activity was measured to be less than or equal to 0.7 μM)	++ (activity was measured to be between 0.1 μM and 4.0 μM)				
CN(C)C(=O)N1CC2(CCN(C3CCN(c4ncnc5ccsc45)CC3)CC2)c2cc(F)ccc21 [compound 496]							> 100%	+ (activity was measured to be greater than or equal to 5.0 μM)	25 to 100%	++ (activity was measured to be between 2.0 μM and 5.0 μM)
CC(=O)N1CC2(CCN(C3CCCCC3C)CC2)c2cc(F)ccc21 (stereo not shown) [compound 52]		> 85%		55 to 70%	+++ (activity was measured to be less than or equal to 0.7 μM)	+++ (activity was measured to be less than or equal to 0.1 μM)				
CCCOC(=O)N1C2CCC1CC(N1CCC3(CC1)CN(C(=O)OC)c1ccc(F)cc13)C2 (stereo not shown) [compound 386]	++ (activity was measured to be between 0.7 μM and 3.0 μM)	< 65%	++ (activity was measured to be between 0.1 μM and 4.0 μM)	< 55%						
CCCS(=O)(=O)N1CC2(CCN(C3CC4CCC(C3)N4C(=O)OCC)CC2)c2cc(F)ccc21 (stereo not shown) [compound 349]		> 85%		> 70%	++ (activity was measured to be between 0.7 μM and 3.0 μM)	++ (activity was measured to be between 0.1 μM and 4.0 μM)				
Cc1nsc(N2CC3(CCN(C4CC5CCC(C4)N5c4nc(C)ns4)CC3)c3ccccc32)n1 (stereo not shown) [compound 477]							> 100%	+++ (activity was measured to be less than or equal to 2.0 μM)	25 to 100%	++ (activity was measured to be between 2.0 μM and 5.0 μM)
Clc1ccc2c(c1)C1(CCN(C3CCCCC3)CC1)CN2 [compound 155]		> 85%		> 70%	+++ (activity was measured to be less than or equal to 0.7 μM)	+ (activity was measured to be greater than or equal to 4.0 μM)				
CCOC(=O)N1CCC(N2CCC3(CC2)CN(C(C)=O)c2ccc(-c4ccc(C(C)=O)cc4)cc23)CC1 [compound 221]		65 to 85%		< 55%	++ (activity was measured to be between 0.7 μM and 3.0 μM)	+ (activity was measured to be greater than or equal to 4.0 μM)				
CS(=O)(=O)N1CC2(CCN(C3CC4CCC(C3)N4C(=O)OC3CCC3)CC2)c2cc(F)ccc21 (stereo not shown) [compound 122]		65 to 85%		< 55%	+++ (activity was measured to be less than or equal to 0.7 μM)	++ (activity was measured to be between 0.1 μM and 4.0 μM)				
CCOC(=O)N1CCC(N2CCC3(CC2)CN(C(C)=O)c2ccc(-c4ccsc4)cc23)CC1 [compound 165]		65 to 85%		> 70%	+ (activity was measured to be greater than or equal to 3.0 μM)	+ (activity was measured to be greater than or equal to 4.0 μM)				
CC(=O)NC1CC2(CCN(C[C@H]3C[C@H]4CC[C@H]3C4)CC2)c2ccccc21 (stereo partly shown) [compound 161]		> 85%		> 70%	++ (activity was measured to be between 0.7 μM and 3.0 μM)	+ (activity was measured to be greater than or equal to 4.0 μM)				
CC(=O)N(C)[C@H]1CC2(CCN(C[C@H]3C[C@H]4CC[C@@H]3C4)CC2)c2ccccc21 [compound 190, N—((S)-1′-((1R,2S,4S)-bicyclo[2.2.1]heptan-2-ylmethyl)-2,3-dihydrospiro[indene-1,4′-piperidine]-3-yl)-N-methylacetamide]		> 85%		55 to 70%	+ (activity was measured to be greater than or equal to 3.0 μM)	+ (activity was measured to be greater than or equal to 4.0 μM)				
CCOC(=O)N1CCC(CN2CCC3(CCc4ccccc43)CC2)CC1 [compound 414]	+ (activity was measured to be greater than or equal to 3.0 μM)	< 65%	+ (activity was measured to be greater than or equal to 4.0 μM)	< 55%						
CN(C)C(=O)N1CC2(CCN(C3(C)CCN(c4cnccn4)CC3)CC2)c2ccccc21 [compound 465]							> 100%	++ (activity was measured to be between 2.0 μM and 5.0 μM)	25 to 100%	++ (activity was measured to be between 2.0 μM and 5.0 μM)
Fc1ccc2c(c1)C1(CCN(CC3CCCCC3)CC1)CN2 [compound 239]		65 to 85%		55 to 70%	+ (activity was measured to be greater than or equal to 3.0 μM)	+ (activity was measured to be greater than or equal to 4.0 μM)				
